Experimental data reported in publication PMC8355244, “A fragment-based approach identifies an allosteric pocket that impacts malate dehydrogenase activity” (Communications Biology, 2021).
“And” between values parts separate entries of the source, which are not always exact repeats. Equal values may be shown once. Read-outs that look alike come from different tables or passages of the source.

Tests used:
[1] = biological target: T1, PfMDH (Plasmodium falciparum, UniProt Q6VVP7); assay: Thermal shift assay (TSA); type: binding; conditions: for TSA melting curve raw signal: triplicate columns; for TSA melting curve raw fluorescence signal: three replicate columns
T1 construct: The full-length WT PfMDH gene was cloned into pETM-13; made in house; host or cells: E. coli Rosetta 2 (DE3) pLysS
Protocol: The TSA experiment was conducted in a BioRad CSX 96 (Biorad). Each reaction consisted of 1 mM of compound (100 mM stock in 100% (v/v) DMSO) and 10 μM PfMDH in 100 mM Na–phosphate buffer pH 7.4, 400 mM NaCl, and 10× Sypro Orange (Invitrogen) for a total volume of 100 μl. Control experiments were performed with 1% (v/v) DMSO. Inflection points were determined using BioRad CFX96™ control software. Generally, a temperature increase of over 1 °C is interpreted as a result of the stabilization of the protein-ligand interaction. On the contrary, a negative shift is considered a destabilization caused by the fragment.

[2] = biological target: T2, V190W PfMDH (Plasmodium falciparum, UniProt Q6VVP7, V190W); assay: STD-NMR fragment screening, dimeric mutant; type: binding; conditions: 10 μM protein, 1 mM fragment
T2 construct: made in house; host or cells: E. coli (stated expressly only for the WT construct)
Protocol: (§1) NMR spectra were acquired on Bruker Avance III (600 MHz) spectrometer at 300 K, equipped with a triple resonance cryoprobe head and an automated SampleJet sample changer. The samples for STD experiments were prepared in 100 mM Na-phosphate pH 7.4, 400 mM NaCl and spectra were recorded in water with 1:100-fold excess of the fragment (dissolved in DMSO at 100 mM) in an additional 10% (v/v) D2O to provide a lock signal. Final protein and ligand concentrations were 10 μM and 1 mM, respectively. Selective saturation of the protein resonances (on resonance spectrum) was performed by irradiating at 0.5 ppm using a series of Eburp2.1000-shaped 90 pulses (50 ms, 1 ms delay between pulses) for a total saturation time of 2.0 s. For the reference spectrum (off-resonance), the samples were irradiated at −10 ppm. On- and off-resonance scans were subtracted using phase cycling. The fragment library screening was performed by testing 300 mixtures containing five fragments each initially. Mixtures that yielded positive STD signals were selected and deconvolved, i.e., fragments that formed “active” mixtures were tested separately. Spectra were analyzed with TopSpin® software, 4.0

[3] = biological target: T3, WT PfMDH (Plasmodium falciparum, UniProt Q6VVP7); assay: Microscale thermophoresis (MST) binding to fluorescently labeled PfMDH
T3 construct: The full-length WT PfMDH gene was cloned into pETM-13; made in house; host or cells: E. coli Rosetta 2 (DE3) pLysS
Protocol: A Nanotemper MonolithNT.115 instrument (Nano-temper Technologies, GmbH) was used to quantify ligand/protein interactions. Purified PfMDH was labeled using the Red-NHS Monolith Protein Labeling Kit according to the manufacturer’s protocol. All reactions were performed in 100 mM Na-phosphate buffer pH 7.4, 400 mM NaCl, 0.05% Tween-20 in standard capillaries (Nanotemper Technologies GmbH). The ligand was 2× fold diluted starting from 4 mM as the highest concentration; the final protein concentration was 50 nM. All samples were incubated with compounds for about 1 h at room temperature followed by centrifugation at 18,000 rpm (Eppendorf Centrifuge 5415R) before loading into capillaries. Measurement was performed in triplicate at 40% LED intensity and 40% MST power. The Kd model was employed to determine the binding constant using the software MO.Affinity Analysis v2.3 while data collection was performed with MO.Control 2 (Nano-temper Technologies, GmbH).

[4] = biological target: T3, WT PfMDH; assay: STD-NMR fragment screening, wild type; type: binding; conditions: 10 μM protein, 100-fold molar excess
Protocol: as §1

[5] = biological target: T1, PfMDH; assay: Kinetics experiment with varying L-malate, substrate inhibition model; type: biochemical
[6] = 3 h exposure to 5 μM; cited from earlier work
[7] = test system: MDH; conditions: cited from earlier work

T1 sequence (Q6VVP7 entry or part of it): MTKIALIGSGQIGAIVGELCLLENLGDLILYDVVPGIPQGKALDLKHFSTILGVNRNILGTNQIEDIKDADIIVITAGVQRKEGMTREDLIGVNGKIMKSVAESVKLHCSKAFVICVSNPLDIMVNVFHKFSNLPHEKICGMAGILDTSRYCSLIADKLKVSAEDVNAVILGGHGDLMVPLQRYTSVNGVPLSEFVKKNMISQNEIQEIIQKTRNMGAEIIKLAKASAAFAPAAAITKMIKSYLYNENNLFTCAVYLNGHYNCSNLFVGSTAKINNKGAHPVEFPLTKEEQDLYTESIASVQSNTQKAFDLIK
T3 sequence (Q6VVP7 entry or part of it): as above
T2 sequence (Q6VVP7 whole entry V190W, the tested form may be a part): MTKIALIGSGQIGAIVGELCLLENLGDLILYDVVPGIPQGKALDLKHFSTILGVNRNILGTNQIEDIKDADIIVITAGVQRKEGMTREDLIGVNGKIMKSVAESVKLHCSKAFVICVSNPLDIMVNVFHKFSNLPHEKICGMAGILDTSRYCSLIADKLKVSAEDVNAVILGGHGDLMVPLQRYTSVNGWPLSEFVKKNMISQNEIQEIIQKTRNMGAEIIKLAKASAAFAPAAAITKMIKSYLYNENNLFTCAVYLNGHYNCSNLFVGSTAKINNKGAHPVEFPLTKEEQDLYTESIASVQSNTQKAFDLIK

## Nc1nc(-c2ccc(F)c(F)c2)cs1 [4DT, 4-(3,4-difluorophenyl) thiazol-2-amine]
[1]; 1 mM compound vs DMSO control
  ΔTm at 1000 µM: -2 ± 0.17 °C
[1]; 1 mM compound, 10 μM PfMDH, DMSO control Tm 58
  Tm: 56 ± 0.17 °C
[1]; Temperature 25
  TSA melting curve raw signal: 3306.061 and 3342.86 and 3324.801
[1]; Temperature 28.5
  TSA melting curve raw signal: 3333.659 and 3382.548 and 3355.546
[1]; Temperature 29
  TSA melting curve raw signal: 3336.65 and 3387.196 and 3360.105
[1]; Temperature 29.5
  TSA melting curve raw signal: 3339.189 and 3391.098 and 3364.015
[1]; Temperature 30
  TSA melting curve raw signal: 3341.416 and 3393.698 and 3368
[1]; Temperature 30.5
  TSA melting curve raw signal: 3342.684 and 3395.106 and 3371.797
[1]; Temperature 31
  TSA melting curve raw signal: 3343.918 and 3395.986 and 3375.352
[1]; Temperature 31.5
  TSA melting curve raw signal: 3345.279 and 3397.252 and 3379.023
[1]; Temperature 32
  TSA melting curve raw signal: 3347.139 and 3398.82 and 3383.605
[1]; Temperature 32.5
  TSA melting curve raw signal: 3348.867 and 3401.838 and 3388.573
[1]; Temperature 33
  TSA melting curve raw signal: 3351.566 and 3406.371 and 3394.323
[1]; Temperature 33.5
  TSA melting curve raw signal: 3355.148 and 3412.286 and 3401.055
[1]; Temperature 34
  TSA melting curve raw signal: 3359.354 and 3419.075 and 3408.698
[1]; Temperature 34.5
  TSA melting curve raw signal: 3364.345 and 3426.84 and 3417.169
[1]; Temperature 35
  TSA melting curve raw signal: 3370.925 and 3434.905 and 3426.749
[1]; Temperature 35.5
  TSA melting curve raw signal: 3378.766 and 3443.449 and 3437.428
[1]; Temperature 36
  TSA melting curve raw signal: 3388.116 and 3452.416 and 3449.193
[1]; Temperature 36.5
  TSA melting curve raw signal: 3399.139 and 3461.927 and 3462.335
[1]; Temperature 37
  TSA melting curve raw signal: 3411.581 and 3472.191 and 3477.03
[1]; Temperature 37.5
  TSA melting curve raw signal: 3425.633 and 3483.607 and 3493.418
[1]; Temperature 38
  TSA melting curve raw signal: 3441.177 and 3496.044 and 3511.6
[1]; Temperature 38.5
  TSA melting curve raw signal: 3458.245 and 3509.831 and 3531.909
[1]; Temperature 39
  TSA melting curve raw signal: 3477.439 and 3525.778 and 3554.709
[1]; Temperature 39.5
  TSA melting curve raw signal: 3498.925 and 3543.752 and 3579.893
[1]; Temperature 40
  TSA melting curve raw signal: 3522.761 and 3563.858 and 3607.657
[1]; Temperature 40.5
  TSA melting curve raw signal: 3549.068 and 3586.405 and 3638.198
[1]; Temperature 41
  TSA melting curve raw signal: 3578.181 and 3611.326 and 3671.73
[1]; Temperature 41.5
  TSA melting curve raw signal: 3609.957 and 3638.555 and 3708.036
[1]; Temperature 42
  TSA melting curve raw signal: 3645.082 and 3668.877 and 3747.413
[1]; Temperature 42.5
  TSA melting curve raw signal: 3683.644 and 3702.365 and 3790.395
[1]; Temperature 43
  TSA melting curve raw signal: 3726.411 and 3739.617 and 3837.462
[1]; Temperature 43.5
  TSA melting curve raw signal: 3773.558 and 3781.332 and 3888.754
[1]; Temperature 44
  TSA melting curve raw signal: 3825.615 and 3827.686 and 3944.903
[1]; Temperature 44.5
  TSA melting curve raw signal: 3882.684
[1]; Temperature 73.5
  TSA melting curve raw fluorescence signal: 7306.372 and 7609.03 and 7435.601
[1]; Temperature 74
  TSA melting curve raw fluorescence signal: 7252.808 and 7555.848 and 7383.062
[1]; Temperature 74.5
  TSA melting curve raw fluorescence signal: 7199.861 and 7502.703 and 7330.716
[1]; Temperature 75
  TSA melting curve raw fluorescence signal: 7147.275 and 7449.479 and 7278.535
[1]; Temperature 75.5
  TSA melting curve raw fluorescence signal: 7094.934 and 7396.013 and 7226.157
[1]; Temperature 76
  TSA melting curve raw fluorescence signal: 7042.814 and 7342.543 and 7173.967
[1]; Temperature 76.5
  TSA melting curve raw fluorescence signal: 6991.326 and 7288.895 and 7121.791
[1]; Temperature 77
  TSA melting curve raw fluorescence signal: 6939.998 and 7235.077 and 7069.532
[1]; Temperature 77.5
  TSA melting curve raw fluorescence signal: 6888.609 and 7181.445 and 7017.268
[1]; Temperature 78
  TSA melting curve raw fluorescence signal: 6837.679 and 7128.499 and 6965.286
[1]; Temperature 78.5
  TSA melting curve raw fluorescence signal: 6786.806 and 7075.655 and 6913.558
[1]; Temperature 79
  TSA melting curve raw fluorescence signal: 6735.738 and 7023.249 and 6861.909
[1]; Temperature 79.5
  TSA melting curve raw fluorescence signal: 6684.496 and 6971.241 and 6810.337
[1]; Temperature 80
  TSA melting curve raw fluorescence signal: 6633.443 and 6919.222 and 6759.175
[1]; Temperature 80.5
  TSA melting curve raw fluorescence signal: 6581.916 and 6866.533 and 6708.294
[1]; Temperature 81
  TSA melting curve raw fluorescence signal: 6530.578 and 6813.96 and 6657.201
[1]; Temperature 81.5
  TSA melting curve raw fluorescence signal: 6479.57 and 6761.335 and 6606.519
[1]; Temperature 82
  TSA melting curve raw fluorescence signal: 6428.761 and 6708.745 and 6556.435
[1]; Temperature 82.5
  TSA melting curve raw fluorescence signal: 6378.066 and 6656.727 and 6506.333
[1]; Temperature 83
  TSA melting curve raw fluorescence signal: 6327.701 and 6605.378 and 6456.007
[1]; Temperature 83.5
  TSA melting curve raw fluorescence signal: 6277.373 and 6554.37 and 6405.813
[1]; Temperature 84
  TSA melting curve raw fluorescence signal: 6227.075 and 6503.782 and 6355.543
[1]; Temperature 84.5
  TSA melting curve raw fluorescence signal: 6177.058 and 6453.083 and 6304.863
[1]; Temperature 85
  TSA melting curve raw fluorescence signal: 6127.333 and 6402.172 and 6253.833
[1]; Temperature 85.5
  TSA melting curve raw fluorescence signal: 6077.95 and 6351.179 and 6202.991
[1]; Temperature 86
  TSA melting curve raw fluorescence signal: 6029.103 and 6299.937 and 6152.723
[1]; Temperature 86.5
  TSA melting curve raw fluorescence signal: 5980.562 and 6248.441 and 6102.328
[1]; Temperature 87
  TSA melting curve raw fluorescence signal: 5932.235 and 6197.461 and 6052.601
[1]; Temperature 87.5
  TSA melting curve raw fluorescence signal: 5883.708 and 6146.127 and 6003.152
[1]; Temperature 88
  TSA melting curve raw fluorescence signal: 5834.776 and 6094.257 and 5953.457
[1]; Temperature 88.5
  TSA melting curve raw fluorescence signal: 5785.039 and 6042.085 and 5903.221
[1]; Temperature 89
  TSA melting curve raw fluorescence signal: 5734.759 and 5989.63 and 5852.78
[1]; Temperature 89.5
  TSA melting curve raw fluorescence signal: 5684.264 and 5936.616 and 5801.633
[1]; Temperature 90
  TSA melting curve raw fluorescence signal: 5633.721
[2]
  STD-NMR binding: binds to dimeric V190W PfMDH
[3]; MST report, target 50 nM, 25.1°C, n 3, Kd Confidence ± 1.7444E-05, read-out: Kd (MST report)
  Kd: 99 µM
[3]; MST, 50 nM labeled WT PfMDH, ligand 240 nM to 4 mM, read-out: Kd
  Kd: 99 ± 1.7 µM
[4]
  STD-NMR binding: could not be seen to bind
[5]; in the presence of 63 μM compound, control 12.5 ± 4.2
  Ki (substrate inhibition constant of malate): 63000 ± 31800 µM
[5]; in the presence of 125 μM compound
  Ki (substrate inhibition constant of malate): 72900 ± 41900 µM

## O=C1NCc2c1c1c3ccccc3[nH]c1c1[nH]c3ccccc3c21 [staurosporine aglycone]
[6]
  decrease in cell viability: 80%
[7]
  IC50: 8 µM
